SMILES strings stand for the structures.

In one assay the target is Ephrin type-A receptor 4 (Mus musculus, UniProt Q03137). Description: placental alkaline phosphatase inhibitors, dose response, counter-screen, biochemical, colorimetric (AID 779). (In general: The purpose of a counterscreen is to sort out artefacts and off-target activity.)
Ephrin type-A receptor 4, sequence (Q03137 whole entry): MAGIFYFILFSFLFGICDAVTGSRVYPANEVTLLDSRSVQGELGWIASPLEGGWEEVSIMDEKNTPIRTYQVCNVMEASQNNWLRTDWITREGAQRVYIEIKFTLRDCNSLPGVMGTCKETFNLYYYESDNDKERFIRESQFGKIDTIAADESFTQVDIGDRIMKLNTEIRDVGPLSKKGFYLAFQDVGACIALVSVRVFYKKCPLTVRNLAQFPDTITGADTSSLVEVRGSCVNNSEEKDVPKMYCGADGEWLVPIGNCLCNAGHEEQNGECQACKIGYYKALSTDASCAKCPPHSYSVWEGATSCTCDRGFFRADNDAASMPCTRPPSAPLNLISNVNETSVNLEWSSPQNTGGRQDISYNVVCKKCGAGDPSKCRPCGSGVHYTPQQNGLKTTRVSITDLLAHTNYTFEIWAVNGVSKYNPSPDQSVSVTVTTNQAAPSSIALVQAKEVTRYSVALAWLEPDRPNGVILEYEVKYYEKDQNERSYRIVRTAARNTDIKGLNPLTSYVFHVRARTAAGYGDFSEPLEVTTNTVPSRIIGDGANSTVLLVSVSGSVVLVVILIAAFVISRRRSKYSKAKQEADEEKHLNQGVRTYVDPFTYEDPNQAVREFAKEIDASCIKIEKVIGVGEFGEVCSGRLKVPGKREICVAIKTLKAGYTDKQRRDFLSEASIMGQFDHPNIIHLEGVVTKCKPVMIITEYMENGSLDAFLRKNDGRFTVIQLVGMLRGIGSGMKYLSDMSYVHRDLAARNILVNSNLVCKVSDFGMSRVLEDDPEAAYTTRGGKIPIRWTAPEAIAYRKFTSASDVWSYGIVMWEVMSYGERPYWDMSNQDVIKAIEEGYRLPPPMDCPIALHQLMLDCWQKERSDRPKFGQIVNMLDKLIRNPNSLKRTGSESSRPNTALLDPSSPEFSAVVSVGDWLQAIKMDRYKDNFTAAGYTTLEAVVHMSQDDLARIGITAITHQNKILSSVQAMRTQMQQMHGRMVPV
Turning to `Cc1ccc(Cl)cc1-n1c(C)nc(Cc2ccc([N+](=O)[O-])cc2)c1O` [MLS000519000], the IC50 is > 50 µM.

`CCCCN(CCCC)c1nc2ccccc2nc1C(C#N)C(=O)OCC` (stereo unspecified) [(2Z)-2-cyano-2-[3-(dibutylamino)-1H-quinoxalin-2-ylidene]acetic acid ethyl ester]: the IC50 is > 50 µM.

With `CCCCOP(=O)(OCCCC)C(C#N)C(C)=O` (stereo unspecified) [(Z)-2-dibutoxyphosphoryl-3-hydroxy-2-butenenitrile], the IC50 is > 50 µM.

For `CCN1C(=O)C(C=NN=Cc2ccccc2)c2ccc(C3=NNC(=O)CC3)cc21` (stereo unspecified) [benzaldehyde {[1-ethyl-2-oxo-6-(6-oxo-1,4,5,6-tetrahydro-3-pyridazinyl)-1,2-dihydro-3H-indol-3-ylidene]methyl}hydrazone], the IC50 is > 50 µM.

`CC(CC(=O)c1ccccc1)N=Nc1nc2ccccc2s1` (stereo unspecified) [(E)-3-(1,3-benzothiazol-2-ylhydrazo)-1-phenyl-2-buten-1-one]: the IC50 was > 50 µM.

Target in the next assay: not listed separately
The description is as above.
Turning to `O=C1/C(=C\c2nc3ccccc3[nH]2)SC(=S)N1c1ccc(F)cc1` [SMR000163732], the IC50 was > 50 µM.

For orientation: IC50 means the midpoint of a concentration-inhibition curve.
